# Results published in patent publication US5162373A, “Methods and improved formulations for the determination and treatment of malignant disease in patients” (priority 1989, dated 1992).
# Tests used:
# [1] = tested on: intestinal epithelium / gut mucosa; details: cited from earlier work
# [2] = Toxicity of continuous i.v. DFMO infusion in rats (FIG. 3); assay type: in vivo, rat; details: 12 days; 500-2000 mg/kg/day
# Source text: FIG. 3. […] Bars indicate standard deviation.
# In the above described rat model, a continuous infusion of DFMO was given through a central venous catheter.
# [3] = set-up: species or system human (patients with advanced colorectal carcinoma); details: human, in vivo
# Source text: FIG. 4. Platelet counts plotted against days of continuous i.v. DFMO infusion in patients with advanced colorectal carcinoma. […] The paired points are connected by a straight line.
# There was no incidence of nausea, vomiting or diarrhea.
# [4] = tested on: platelets; details: rat, in vivo
# [5] = tested on: tumor putrescine; MCA sarcoma
# [6] = tested on: intestinal epithelium / gut mucosa; experiment: Trophic/protective effect on intestinal epithelium, other studies; assay type: in vivo; details: doses as high as 20 g/L
compound,measurement,setting,value
NCCCCN [putrescine],colonic DNA and protein content,[1]; about 50 micromole/100 gram body weight,increases in colonic DNA and protein content
same,DNA and RNA content and protein in ileum,[1]; putrescine about 1 micromole,increased DNA and RNA content and protein
same,mucosal proliferation,[1]; putrescine: intraluminal infusion,stimulation of mucosal proliferation
"NCCCC(N)(C(=O)O)C(F)F (stereo not shown) [DFMO, Difluoromethylornithine]",clinical toxicity,[2],no significant clinical toxicity
same,White cell count,[3],not affected by either dose
same,decreased hearing acuity,[3],two patients who experienced decreased hearing acuity
same,hematocrit,[3],Significant suppression of the hematocrit
same,"nausea, vomiting or diarrhea",[3],no incidence
same,platelet suppression,[3],significant at both doses
same,"platelet suppression, 8 g vs 6 g dose",[3],significantly greater platelet suppression at the 8 g dose as compared with the 6 g dose
same,resolution of toxicities after discontinuing infusion,[3],resolved spontaneously within two weeks
same,"platelet suppression, in words",[4],significant decrease in platelet count as compared with the saline treatment
same,decrease in tumor putrescine levels,[5]; DFMO infusion,90%
same,growth of MCA sarcoma,"[5]; rat, in vivo",reduces the growth rate of an MCA sarcoma but does not produce tumor regression
same,peripheral platelet counts,"[5]; rat, in vivo",without suppressing peripheral platelet counts
"NC(=O)CC[C@H](N)C(=O)O [glutamine, L-glutamine]","gut epithelium, glutamine added to TPN",[1]; 10-20 g/L,restores gut epithelium
same,transmucosal migration of bacteria into mesenteric lymph nodes,[1]; compared with glutamine deficient formulas,present transmucosal migration of bacteria into mesenteric lymph nodes
same,protection of gut mucosa,"[1]; oral, rats receiving toxic doses of 5FU or methotrexate",protected the gut mucosa
same,trophic effect on intestinal epithelium,[6],"trophic effect on intestinal epithelium, especially the ileum"
